Experiments:
Format in all cases: in vivo
Rice [1] = assay: Postemergence Herbicidal Activity, Rice; settings: Oryza sativa, post-emergence; for plant injury at 2000 g/ha: 2.0 kg/ha
Text: (§1) The herbicidal data in the following Tables 3 and 4 was obtained in the manner described in PCT published application no. […] In those tables, the test compounds are identified by numbers which correspond to those in Table 1, "kg/ha" is kilograms per hectare, and "% C" is percent control.

Morningglory [2] = assay: Postemergence Herbicidal Activity, Morningglory; settings: Ipomoea, post-emergence; for pest or weed control at 2000 g/ha: 2.0 kg/ha
Text: (§2) The herbicidal data in the following Tables 3 and 4 was obtained in the manner described in PCT published application no. WO 85/01939, previously mentioned, usually employing solutions of the herbicidal compound in 50/50 acetone/water mixtures. In those tables, the test compounds are identified by numbers which correspond to those in Table 1, "kg/ha" is kilograms per hectare, and "% C" is percent control.

Green Foxtail [3] = assay: Postemergence Herbicidal Activity, Green Foxtail; settings: Setaria viridis, post-emergence; for pest or weed control at 2000 g/ha: 2.0 kg/ha
Text: as §1

Cotton [4] = assay: Postemergence Herbicidal Activity, Cotton; settings: Gossypium hirsutum, post-emergence; for plant injury at 2000 g/ha: 2.0 kg/ha
Text: as §2

Velvetleaf [5] = assay: Postemergence Herbicidal Activity, Velvetleaf; settings: Abutilon theophrasti, post-emergence; for pest or weed control at 2000 g/ha: 2.0 kg/ha
Text: as §2

Field Bindweed [6] = assay: Postemergence Herbicidal Activity, Field Bindweed; settings: post-emergence; for pest or weed control at 2000 g/ha: 2.0 kg/ha
Text: as §2

Johnsongrass [7] = assay: Postemergence Herbicidal Activity, Johnsongrass; settings: Sorghum halepense, post-emergence; for pest or weed control at 2000 g/ha: 2.0 kg/ha
Text: as §1

Wheat [8] = assay: Postemergence Herbicidal Activity, Wheat; settings: Triticum aestivum, post-emergence; for plant injury at 2000 g/ha: 2.0 kg/ha
Text: as §1

Soybean [9] = assay: Postemergence Herbicidal Activity, Soybean; settings: Glycine max, post-emergence; for plant injury at 2000 g/ha: 2.0 kg/ha
Text: as §1

Barnyardgrass [10] = assay: Postemergence Herbicidal Activity, Barnyardgrass; settings: Echinochloa crus-galli, post-emergence; for pest or weed control at 2000 g/ha: 2.0 kg/ha
Text: as §1

Field Corn [11] = assay: Postemergence Herbicidal Activity, Field Corn; settings: Zea mays, post-emergence; for plant injury at 2000 g/ha: 2.0 kg/ha
Text: as §1

Rice [12] = assay: Preemergence Herbicidal Activity, Rice; settings: Oryza sativa, pre-emergence
Text: as §1

Johnsongrass [13] = assay: Preemergence Herbicidal Activity, Johnsongrass; settings: Sorghum halepense, pre-emergence
Text: as §1

Wheat [14] = assay: Preemergence Herbicidal Activity, Wheat; settings: Triticum aestivum, pre-emergence
Text: as §1

Velvetleaf [15] = assay: Preemergence Herbicidal Activity, Velvetleaf; settings: Abutilon theophrasti, pre-emergence
Text: as §2

Cotton [16] = assay: Preemergence Herbicidal Activity, Cotton; settings: Gossypium hirsutum, pre-emergence
Text: as §2

Soybean [17] = assay: Preemergence Herbicidal Activity, Soybean; settings: Glycine max, pre-emergence
Text: as §1

Green Foxtail [18] = assay: Preemergence Herbicidal Activity, Green Foxtail; settings: Setaria viridis, pre-emergence
Text: as §1

Field Bindweed [19] = assay: Preemergence Herbicidal Activity, Field Bindweed; settings: pre-emergence
Text: as §2

Barnyardgrass [20] = assay: Preemergence Herbicidal Activity, Barnyardgrass; settings: Echinochloa crus-galli, pre-emergence
Text: as §1

Field Corn [21] = assay: Preemergence Herbicidal Activity, Field Corn; settings: Zea mays, pre-emergence
Text: as §1

Morningglory [22] = assay: Preemergence Herbicidal Activity, Morningglory; settings: Ipomoea, pre-emergence
Text: as §2

Compound: CCS(=O)(=O)Nc1cc(-n2nnn(C)c2=O)c(F)cc1Cl [Compound 43, 1-[4-Chloro-2-fluoro-5-(N--ethylsulfonylamino)phenyl]-4,5-dihydro-4-methyl-5H--tetrazol-5-one]
- plant injury at 2000 g/ha (Rice [1]): 50%
- pest or weed control at 2000 g/ha (Morningglory [2]): 100%
- pest or weed control at 2000 g/ha (Green Foxtail [3]): 40%
- plant injury at 2000 g/ha (Cotton [4]): 100%
- pest or weed control at 2000 g/ha (Velvetleaf [5]): 95%
- pest or weed control at 2000 g/ha (Field Bindweed [6]): 100%
- pest or weed control at 2000 g/ha (Johnsongrass [7]): 70%
- plant injury at 2000 g/ha (Wheat [8]): 50%
- plant injury at 2000 g/ha (Soybean [9]): 50%
- pest or weed control at 2000 g/ha (Barnyardgrass [10]): 50%
- plant injury at 2000 g/ha (Field Corn [11]): 30%

Compound: CCS(=O)(=O)N(C)c1cc(-n2nnn(CCCF)c2=O)c(F)cc1Cl [Compound 12, 1-[4-chloro-2-fluoro-5-[(N--ethylsulfonyl-N--methyl)amino]phenyl]-1,4-dihydro-4-(3-fluoropropyl)-5H--tetrazol-5-one]
- plant injury at 500 g/ha (Rice [1]; 0.5 kg/ha): 30%
- plant injury at 500 g/ha (Rice [12]; 0.5 kg/ha): 90%
- pest or weed control at 500 g/ha (Johnsongrass [13]; 0.5 kg/ha): 100%
- pest or weed control at 500 g/ha (Morningglory [2]; 0.5 kg/ha): 100%
- pest or weed control at 500 g/ha (Green Foxtail [3]; 0.5 kg/ha): 70%
- plant injury at 500 g/ha (Wheat [14]; 0.5 kg/ha): 100%
- pest or weed control at 500 g/ha (Velvetleaf [15]; 0.5 kg/ha): 100%
- plant injury at 500 g/ha (Cotton [4]; 0.5 kg/ha): 100%
- plant injury at 500 g/ha (Cotton [16]; 0.5 kg/ha): 100%
- pest or weed control at 500 g/ha (Velvetleaf [5]; 0.5 kg/ha): 100%
- plant injury at 500 g/ha (Soybean [17]; 0.5 kg/ha): 80%
- pest or weed control at 500 g/ha (Green Foxtail [18]; 0.5 kg/ha): 100%
- pest or weed control at 500 g/ha (Field Bindweed [6]; 0.5 kg/ha): 100%
- pest or weed control at 500 g/ha (Field Bindweed [19]; 0.5 kg/ha): 100%
- pest or weed control at 500 g/ha (Johnsongrass [7]; 0.5 kg/ha): 70%
- pest or weed control at 500 g/ha (Barnyardgrass [20]; 0.5 kg/ha): 100%
- plant injury at 500 g/ha (Field Corn [21]; 0.5 kg/ha): 100%
- pest or weed control at 500 g/ha (Morningglory [22]; 0.5 kg/ha): 100%
- plant injury at 500 g/ha (Wheat [8]; 0.5 kg/ha): 80%
- plant injury at 500 g/ha (Soybean [9]; 0.5 kg/ha): 70%
- pest or weed control at 500 g/ha (Barnyardgrass [10]; 0.5 kg/ha): 70%
- plant injury at 500 g/ha (Field Corn [11]; 0.5 kg/ha): 70%

Compound: CCS(=O)(=O)N(c1cc(-n2nnn(CCCF)c2=O)c(Cl)cc1F)S(=O)(=O)CC [Compound 37, 1-[2-Chloro-4-fluoro-5-[bis(N--ethylsulfonyl)amino]phenyl]-4,5-dihydro-4-(3-fluoropropyl)-5H--tetrazol-5-one]
- plant injury at 2000 g/ha (Rice [1]): 20%
- plant injury at 2000 g/ha (Rice [12]; 2.0 kg/ha): 0%
- pest or weed control at 2000 g/ha (Johnsongrass [13]; 2.0 kg/ha): 70%
- pest or weed control at 2000 g/ha (Morningglory [2]): 50%
- pest or weed control at 2000 g/ha (Green Foxtail [3]): 50%
- plant injury at 2000 g/ha (Wheat [14]; 2.0 kg/ha): 30%
- pest or weed control at 2000 g/ha (Velvetleaf [15]; 2.0 kg/ha): 100%
- plant injury at 2000 g/ha (Cotton [4]): 70%
- plant injury at 2000 g/ha (Cotton [16]; 2.0 kg/ha): 10%
- pest or weed control at 2000 g/ha (Velvetleaf [5]): 80%
- plant injury at 2000 g/ha (Soybean [17]; 2.0 kg/ha): 0%
- pest or weed control at 2000 g/ha (Green Foxtail [18]; 2.0 kg/ha): 50%
- pest or weed control at 2000 g/ha (Field Bindweed [6]): 40%
- pest or weed control at 2000 g/ha (Field Bindweed [19]; 2.0 kg/ha): 20%
- pest or weed control at 2000 g/ha (Johnsongrass [7]): 20%
- pest or weed control at 2000 g/ha (Barnyardgrass [20]; 2.0 kg/ha): 80%
- plant injury at 2000 g/ha (Field Corn [21]; 2.0 kg/ha): 20%
- pest or weed control at 2000 g/ha (Morningglory [22]; 2.0 kg/ha): 20%
- plant injury at 2000 g/ha (Wheat [8]): 20%
- plant injury at 2000 g/ha (Soybean [9]): 40%
- pest or weed control at 2000 g/ha (Barnyardgrass [10]): 30%
- plant injury at 2000 g/ha (Field Corn [11]): 20%

Compound: CS(=O)(=O)N(c1cc(-n2nnn(CCCF)c2=O)ccc1Cl)S(C)(=O)=O [Compound 6]
- plant injury at 8000 g/ha (Rice [1]; 8.0 kg/ha): 30%
- pest or weed control at 8000 g/ha (Johnsongrass [13]; 8.0 kg/ha): 20%
- pest or weed control at 8000 g/ha (Morningglory [2]; 8.0 kg/ha): 100%
- pest or weed control at 8000 g/ha (Green Foxtail [3]; 8.0 kg/ha): 50%
- plant injury at 8000 g/ha (Wheat [14]; 8.0 kg/ha): 0%
- pest or weed control at 8000 g/ha (Velvetleaf [15]; 8.0 kg/ha): 95%
- plant injury at 8000 g/ha (Cotton [4]; 8.0 kg/ha): 90%
- plant injury at 8000 g/ha (Cotton [16]; 8.0 kg/ha): 70%
- pest or weed control at 8000 g/ha (Velvetleaf [5]; 8.0 kg/ha): 100%
- plant injury at 8000 g/ha (Soybean [17]; 8.0 kg/ha): 30%
- pest or weed control at 8000 g/ha (Green Foxtail [18]; 8.0 kg/ha): 30%
- pest or weed control at 8000 g/ha (Field Bindweed [6]; 8.0 kg/ha): 70%
- pest or weed control at 8000 g/ha (Field Bindweed [19]; 8.0 kg/ha): 20%
- pest or weed control at 8000 g/ha (Johnsongrass [7]; 8.0 kg/ha): 20%
- pest or weed control at 8000 g/ha (Barnyardgrass [20]; 8.0 kg/ha): 30%
- plant injury at 8000 g/ha (Field Corn [21]; 8.0 kg/ha): 20%
- pest or weed control at 8000 g/ha (Morningglory [22]; 8.0 kg/ha): 60%
- plant injury at 8000 g/ha (Wheat [8]; 8.0 kg/ha): 20%
- plant injury at 8000 g/ha (Soybean [9]; 8.0 kg/ha): 50%
- pest or weed control at 8000 g/ha (Barnyardgrass [10]; 8.0 kg/ha): 50%
- plant injury at 8000 g/ha (Field Corn [11]; 8.0 kg/ha): 40%

Reference: patent publication US4868321A, “Isothiocyanate intermediates” (FMC Corporation, priority 1988, dated 1989)
